Test results as given in patent US20190350907A1, “METHODS AND PHARMACEUTICAL COMPOSITIONS FOR REDUCING CD95- MEDIATED CELL MOTILITY” (INSERM (INSTITUT NATIONAL DE LA SANTÉ ET DE LA RECHERCHE …, priority 2017, published 2019).
Like-named read-outs stand apart in the source and are kept apart here.

T1: CD95/PLCγ1 interaction (Homo sapiens, UniProt P19174)
T1 construct: The PLCγ1-SH3 domain (aa 790-851) (C); expressed in transfected cells; host or cells: HEK293T
T1 sequence (P19174 790-851): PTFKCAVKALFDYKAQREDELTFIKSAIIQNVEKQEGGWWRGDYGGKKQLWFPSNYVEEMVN

T2: PLCγ1-SH3 domain (aa 790-851) fused to F1 fragment of Renilla luciferase, P19174
T2 chain: T1 sequence (P19174 790-851)

B1: TAT-minCID (cell-penetrating domain TAT fused to minCID, TCRKHRK) (peptide)
peptide: TCRKHRK
modifications: not checked
B2: minCID (minimal CID, amino acids 182 to 188 of CD95, TCRKHRK) (peptide)
peptide: TCRKHRK
modifications: not checked
B3: TAT-CID (cell-penetrating domain of TAT fused to the calcium-inducing domain of CD95, amino acids 175 to 210) (peptide)
peptide: KRKEVQKTCRKHRKENQGSHESPTLNPETVAINLSD
modifications: not checked

Legend:
[1] = target: T1, CD95/PLCγ1 interaction; assay: Renilla luciferase protein-fragment complementation assay (PCA), CD95-CID/PLCγ1-SH3; format: cell-based; details: for effect on interaction of CD95 with PLCγ1: result in words
Protocol: FIG. 1. […] A. Schematic representation of the protein-fragment complementation assay used with CD95-CID or -DD fused to F2 and PLCγ1-SH3 or FADD-DD fused to F1 to identify inhibitors from the Prestwick library. The Renilla luciferase enzyme was divided into amino-terminal and carboxy-terminal fragments (yellow domains) and fused to the indicated domains. B. Compounds from the Prestwick library were tested against CD95/PLCγ1 or CD95/FADD PCA. […] Inhibition of CD95/FADD interaction is also assessed.
Light emission indicates refolding of the luciferase and reconstitution of enzyme activity through protein/protein interactions. […] Data represent means±SD of three independent experiments. […] Then, the indicated peptides fused with or without the cell-penetrating domain TAT were incubated at the indicated concentrations for 4 hrs and luminescence was assessed. Data represent means±SD of three independent experiments. […].
HEK293T cells were electroporated with 5 μg of DNA using BTM-830 electroporation generator (BTX Instrument Division, Harvard Apparatus) with 10 μg of DNA. Transfected cells were cultured for 24 hrs prior to protein complementation assay analyses as previously described (17). Briefly, transfected cells (10^6) were washed, resuspended in 100 μl PBS and deposited in OptiPlate-96 (PerkinElmer, Waltham, Mass., USA). Coelenterazine-h (5 μM, Sigma) was injected to each well and renilla luciferase activity was monitored for the first 10 seconds using Infinite200Pro (Tecan, Männedorf, Switzerland).
A peptide consisting of the cell-penetrating domain of TAT fused to CID (TAT-CID) binds the SH3 domain of PLCγ1 and thereby, prevents PLCγ1/CD95 interaction and the subsequent induction of the Ca^2+ response (16). […] Briefly, the Renilla luciferase enzyme was divided into two fragments (F1 and F2 fragments). […] Interaction of CD95 with PLCγ1 or FADD allows the reconstitution of RLuc and subsequent light emission (FIG. 1A). The chemical Prestwick library was screened against these PCAs (FIG. 1B). […] These molecules are designated CID inhibitors or CIDINH.

[2] = test system: activated PBLs; assay: CD95-mediated cell migration / endothelial transmigration of activated PBLs (Boyden chamber); format: cell-based, human; details: result in words
Protocol: FIG. 3. Drugs inhibit CD95-mediated Ca′ response and cell migration. A. Activated PBLs were loaded with FuraPE3-AM (1 μM) and pre-treated for 1 h with non-toxic concentrations of indicated compounds. T-cells were then stimulated with cl-CD95L (100 ng/mL; arrow). Ratio values (R) were normalized to pre-stimulated values (R0) to yield R/R0 values. Data represent means±the SD. B. Left panel: using Boyden chamber assay, cell migration of parental H9 cells and their counterpart lacking CD95 (CD95-KO) was assessed. Right panel: activated PBLs were pre-incubated in the presence or absence of the indicated drugs for 1 hour using non-toxic concentration and the CD95-mediated cell migration was assessed by Boyden chambers. C. Th17 cells were sorted from blood of healthy donors (peripheral blood mononuclear cell). FACS analyses showing the efficiency of Th17 (CCR6^+ CXCR3^−) cell sorting from healthy donors PBMCs. D. Th17 cells were pre-incubated in the presence or absence of the indicated drugs for 1 hour using non-toxic concentration and cell migration was assessed by Boyden chambers. After membrane hydration of Boyden chambers (Millipore, Molsheim, France) containing 8 μm pore membranes, 10^5 cells were added to the top chamber. The bottom chamber was filled with low serum (1%)-containing medium in the presence or absence of cl-CD95L (100 ng/ml). Cells were incubated for 24 h. To quantify invasion, cells were fixed with methanol and stained with Giemsa. Stained cells were then removed from the top-side of the membrane using a cotton-tipped swab and five representative pictures for each insert were taken of the invading cells from the reverse side. For each experiment, invading cells were lysed and absorbance at 560 nm was measured. Membranes (3 μm pore size) of a Boyden chamber were hydrated in sterile D-PBS (Millipore, Molsheim, France). Thereafter, activated T-lymphocytes (10^6) were added to the top chamber on a confluent monolayer of HUVEC in a low serum (1%)-containing medium. The bottom chamber was filled with low serum (1%)-containing medium in presence or absence of 100 ng/ml of cl-CD95L. In experiments using human sera, 500 μl of serum from either healthy donors or SLE patients was added to the lower chamber. Cells were cultured for 24 h at 37° C. in a 5% CO2, humidified incubator. Transmigrated cells were counted in the lower reservoir by flow cytometry using a standard of 2.5×10^4 fluorescent beads (Flow-count, Beckman Coulter).

[3] = test system: CD95-mediated Ca2+ signaling pathway in Th17 cells; assay: CD95-mediated Ca2+ response in Th17 cells; format: cell-based, human; details: drugs 1 μM for 1 h, s-CD95L 100 ng/mL, Fluo2 LR-AM
Protocol: A. Activated PBLs were loaded with FuraPE3-AM (1 μM) and pre-treated for 1 h with non-toxic concentrations of indicated compounds. T-cells were then stimulated with thapsigargin (1 μM; arrow). Ratio values (R) were normalized to pre-stimulated values (R0) to yield R/R0 values. Data represent means±the SD. B. Th17 cells were sorted from healthy donors and loaded with FuraPE3-AM (1 μM). Th17 cells were pre-treated for 1 h with non-toxic concentrations of ritonavir or diflunisal (1 μM). T-cells were then stimulated with cl-CD95L (100 ng/mL; arrow). Ratio values (R) were normalized to pre-stimulated values (R0) to yield R/R0 values. Data represent means±the SD.
Human PBLs were sorted using flow cytometry cell sorting to isolate Th17 (A) according to their phenotype (CD3+CD4+CXCR5−CCR6+CXCR3−CD45RA−) and Tfh (B) (CD4+CXCR5+ICOS+PD−1+CD45RA−). Cells were pre-incubated with Indicated drugs (1 μM) for 1 h and then stimulated with 100 ng/mL of s-CD95L. [Ca2+]CYT was assessed in Fluo2 LR-AM (3 μM)-loaded cells. Data represent means±the SD of 3 independent experiments.
Peripheral blood mononuclear cells (PBMC) were isolated from buffy-coat by density gradient using lymphocyte separation medium (Eurobio, Les Ulis, France). PBMCs were then subjected to selection using a cocktail of antibody-coated magnetic beads: CCR6^+ CXCR3^−CD4^+ cells (Th17 cells) were sorted with Human Th17 Enrichment kit (STEMCELL Technologies, Grenoble, France). Cell sorting efficiency was evaluated by FACS.
T-cells were loaded with Fura-PE3-AM (1 μM) at room temperature for 30 min in Hank's Balanced Salt Solution (HBSS). After washing, the cells were incubated for 15 min in the absence of Fura-PE3-AM to complete de-esterification of the dye. Cells were placed in a temperature controlled chamber (37° C.) of an inverted epifluorescence microscope (Olympus IX70) equipped with an x40 UApo/340-1.15 W water-immersion objective (Olympus), and fluorescence micrograph images were captured at 510 nm and 12-bit resolution by a fast-scan camera (CoolSNAP fx Monochrome, Photometrics). To minimize UV light exposure, a 4×4 binning function was used. Fura-PE3 was alternately excited at 340 and 380 nm, and the ratios of the resulting images (emission filter at 520 nm) were produced at constant intervals (10 seconds). The Fura-PE3 ratio (Fratio 340/380) images were analyzed offline with Universal Imaging software, including Metafluor and Metamorph. Fratio reflects the intracellular Ca^2+ concentration changes. Each experiment was repeated at least 3 times, and the average of more than 20 single-cell traces per experiment was analyzed.

[4] = test system: CD95-mediated Ca2+ signaling pathway in Tfh cells; assay: CD95-mediated Ca2+ response in Tfh cells; format: cell-based, human; details: drugs 1 μM for 1 h, s-CD95L 100 ng/mL, Fluo2 LR-AM
[5] = target: T2, PLCγ1-SH3 domain (aa 790-851) fused to …
[6] = target: T2, PLCγ1-SH3 domain (aa 790-851) fused to …; assay: Renilla luciferase protein-fragment complementation assay in non-permeabilized HEK cells (CID-CD95-F2 / PLCγ1-SH3-F1), peptide 4 h; displaces CID-CD95

Row | Molecule | effect on interaction of CD95 with PLCγ1 [1] | effect on endothelial transmigration of PBLs [2] | effect on CD95-mediated Ca2+ signaling pathway in Th17 cells [3] | effect on CD95-mediated Ca2+ signaling pathway in Tfh cells [4] | also measured
1 | COc1ccc(-c2cc(=S)ss2)cc1 [anethole, 5-(4-methoxyphenyl)dithiole-3-thione] | efficiently prevented | inhibited | – | – | –
2 | COC(=O)N[C@H](C(=O)N[C@@H](Cc1ccccc1)[C@@H](O)CN(Cc1ccc(-c2ccccn2)cc1)NC(=O)[C@@H](NC(=O)OC)C(C)(C)C)C(C)(C)C [atazanavir] | – | – | efficiently abrogated | efficiently abrogated | –
3 | CC(C)CN(C[C@@H](O)[C@H](Cc1ccccc1)NC(=O)O[C@H]1CO[C@H]2OCC[C@H]21)S(=O)(=O)c1ccc(N)cc1 [darunavir] | – | – | efficiently abrogated | efficiently abrogated | –
4 | COc1cccc2c1C(=O)c1c(O)c3c(c(O)c1C2=O)C[C@@](O)(C(C)=O)C[C@@H]3O[C@H]1C[C@H](N)[C@H](O)[C@H](C)O1 [daunorubicin, (7S,9S)-9-acetyl-7-[(2R,4S,5S,6S)-4-amino-5-hydroxy-6-methyloxan-2-yl]oxy-6,9,11-trihydroxy-4-methoxy-8,10-dihydro-7H-tetracene-5,12-dione] | efficiently prevented | inhibited | – | – | –
5 | Cc1cccc(C)c1OCC(=O)N[C@@H](Cc1ccccc1)[C@@H](O)C[C@H](Cc1ccccc1)NC(=O)[C@H](C(C)C)N1CCCNC1=O [lopinavir] | – | – | efficiently abrogated | efficiently abrogated | –
6 | CN(CCOc1ccc(CC2SC(=O)NC2=O)cc1)c1ccccn1 (stereo not shown) [rosiglitazone, 5-[[4-[2-[methyl(pyridin-2-yl)amino]ethoxy]phenyl]methyl]-1,3-thiazolidine-2,4-dione] | efficiently prevented | inhibited | – | – | –
7 | TAT-minCID: heptapeptide minCID (TCRKHRK, SEQ ID NO:1) fused with the cell-penetrating domain TAT (not fully specified; chains of the parent or of the whole protein) | – | – | – | – | IC50 ([1]; PCA in HEK cells, peptides incubated for 4 hours, read-out: IC50, disruption of CD95/PLCγ1 interaction by peptides): 11.5 µM
8 | B1 | – | – | – | – | IC50 [5]: 11.5 µM
9 | B2 | – | – | – | – | IC50 [6]: 35.5 µM
10 | B3 | – | – | – | – | IC50 [5]: 10.8 µM
